Results reported in ChEMBL document CHEMBL6103539, “A critical analysis of design, binding pattern and SAR of benzo-fused heteronuclear compounds as VEGFR-2 inhibitors” (Bioorg Med Chem, 2024).
≈ marks a conversion by molar mass, not a printed value.

Key:
[1] = target: T1, Vascular endothelial growth factor receptor 2 (Homo sapiens, UniProt P35968); assay: Inhibition of human VEGFR-2 by ELISA method
MCF7 [2] = assay: Cytotoxicity against human MCF7 cells assessed as reduction in cell viability incubated for 48 hrs by MTT assay; format: functional, cell-based; details: MCF7, 48 h
[3] = target: T1, Vascular endothelial growth factor receptor 2; assay: Inhibition of VEGFR-2 in human MCF7 cells by ELISA method; format: cell-based
MCF7 [4] = assay: Antiproliferative activity against human MCF7 cells assessed as cell growth inhibition measured for 24 hrs by MTT assay; format: functional, cell-based; details: MCF7, 24 h
HepG2 [5] = assay: Antiproliferative activity against human HepG2 cells assessed as cell growth inhibition measured for 24 hrs by MTT assay; format: functional, cell-based; details: HepG2, 24 h
HCT-116 [6] = assay: Antiproliferative activity against human HCT-116 cells assessed as cell growth inhibition measured for 24 hrs by MTT assay; format: functional, cell-based; details: HCT-116, 24 h
A549 [7] = assay: Cytotoxicity against human A549 cells; format: functional, cell-based
MCF7 [8] = assay: Cytotoxicity against human MCF7 cells; format: functional, cell-based
DU-145 = assay: Cytotoxicity against human DU-145 cells; format: functional, cell-based
[9] = target: T1, Vascular endothelial growth factor receptor 2; assay: Inhibition of VEGFR-2 (unknown origin)
HCT-116 [10] = assay: Cytotoxicity against human HCT-116 cells assessed as reduction in cell growth by MTT assay; format: functional, cell-based
HepG2 [11] = assay: Cytotoxicity against human HepG2 cells assessed as reduction in cell growth by MTT assay; format: functional, cell-based
MCF7 [12] = assay: Cytotoxicity against human MCF7 cells assessed as reduction in cell growth by MTT assay; format: functional, cell-based
HeLa [13] = assay: Antiproliferative activity against human HeLa cells assessed as reduction in cell growth incubated for 48 hrs by MTT assay; format: toxicity, cell-based
[14] = target: T1, Vascular endothelial growth factor receptor 2; assay: Inhibition of VEGFR-2 (unknown origin) at 1 uM using Poly(4:1 Glu, Tyr) as substrate by Kinase-Glo Max reagent based luminescence analysis relative to control
NCI-H1975 = assay: Antiproliferative activity against human NCI-H1975 cells assessed as reduction in cell growth incubated for 48 hrs by MTT assay; format: toxicity, cell-based; details: NCI-H1975, 48 h
A549 [15] = assay: Antiproliferative activity against human A549 cells assessed as reduction in cell growth incubated for 48 hrs by MTT assay; format: toxicity, cell-based; details: A549, 48 h
[16] = Antiproliferative activity against human HUVEC cells assessed as reduction in cell growth incubated for 48 hrs by MTT assay; format: toxicity, cell-based
UO-31 = assay: Antiproliferative activity against human UO-31 cells assessed as reduction in cell viability incubated for 48 hrs by MTT assay; format: functional, cell-based; details: UO-31, 48 h
MCF7 [17] = assay: Growth inhibition of human MCF7 cells; format: functional
[18] = Cytotoxicity against human MDA-MB-435 cells assessed as reduction in cell viability incubated for 72 hrs by CCK-8 assay; format: toxicity, cell-based
HeLa [19] = assay: Cytotoxicity against human HeLa cells assessed as reduction in cell viability incubated for 72 hrs by CCK-8 assay; format: functional, cell-based
[20] = Cytotoxicity against human HUVEC cells assessed as reduction in cell viability incubated for 72 hrs by CCK-8 assay; format: toxicity, cell-based
HT-29 = assay: Cytotoxicity against human HT-29 cells assessed as reduction in cell viability incubated for 72 hrs by CCK-8 assay; format: functional, cell-based; details: HT-29, 72 h
[21] = target: T1, Vascular endothelial growth factor receptor 2; assay: Inhibition of VEGFR-2 (unknown origin) at 1 uM by ELISA method relative to control
[22] = Cytotoxicity against human A549 cells assessed as reduction in cell viability incubated for 72 hrs by CCK-8 assay; format: toxicity, cell-based
HCT-116 [23] = assay: cells; details: Homo sapiens, HCT-116, 72 h
Description: Cytotoxicity against human HCT-116 cells assessed as reduction in cell viability incubated for 72 hrs by MTT assay

HepG2 [24] = assay: cells; details: Homo sapiens, HepG2, 72 h
Description: Cytotoxicity against human HepG2 cells assessed as reduction in cell viability incubated for 72 hrs by MTT assay

[25] = target: T1, Vascular endothelial growth factor receptor 2; assay: Inhibition of VEGFR2 (unknown origin) using poly (Glu,Tyr) 4:1 as substrate measured after 1 hr in presence of ATP by ELISA method
MCF7 [26] = assay: cells; details: Homo sapiens, MCF7, 72 h
Description: Cytotoxicity against human MCF7 cells assessed as reduction in cell viability incubated for 72 hrs by MTT assay

HepG2 [27] = assay: Anticancer activity against human HepG2 cells assessed as reduction in cell viability measured after 72 hrs by MTT assay; format: functional, cell-based; details: HepG2, 72 h

T1 sequence (P35968 whole entry): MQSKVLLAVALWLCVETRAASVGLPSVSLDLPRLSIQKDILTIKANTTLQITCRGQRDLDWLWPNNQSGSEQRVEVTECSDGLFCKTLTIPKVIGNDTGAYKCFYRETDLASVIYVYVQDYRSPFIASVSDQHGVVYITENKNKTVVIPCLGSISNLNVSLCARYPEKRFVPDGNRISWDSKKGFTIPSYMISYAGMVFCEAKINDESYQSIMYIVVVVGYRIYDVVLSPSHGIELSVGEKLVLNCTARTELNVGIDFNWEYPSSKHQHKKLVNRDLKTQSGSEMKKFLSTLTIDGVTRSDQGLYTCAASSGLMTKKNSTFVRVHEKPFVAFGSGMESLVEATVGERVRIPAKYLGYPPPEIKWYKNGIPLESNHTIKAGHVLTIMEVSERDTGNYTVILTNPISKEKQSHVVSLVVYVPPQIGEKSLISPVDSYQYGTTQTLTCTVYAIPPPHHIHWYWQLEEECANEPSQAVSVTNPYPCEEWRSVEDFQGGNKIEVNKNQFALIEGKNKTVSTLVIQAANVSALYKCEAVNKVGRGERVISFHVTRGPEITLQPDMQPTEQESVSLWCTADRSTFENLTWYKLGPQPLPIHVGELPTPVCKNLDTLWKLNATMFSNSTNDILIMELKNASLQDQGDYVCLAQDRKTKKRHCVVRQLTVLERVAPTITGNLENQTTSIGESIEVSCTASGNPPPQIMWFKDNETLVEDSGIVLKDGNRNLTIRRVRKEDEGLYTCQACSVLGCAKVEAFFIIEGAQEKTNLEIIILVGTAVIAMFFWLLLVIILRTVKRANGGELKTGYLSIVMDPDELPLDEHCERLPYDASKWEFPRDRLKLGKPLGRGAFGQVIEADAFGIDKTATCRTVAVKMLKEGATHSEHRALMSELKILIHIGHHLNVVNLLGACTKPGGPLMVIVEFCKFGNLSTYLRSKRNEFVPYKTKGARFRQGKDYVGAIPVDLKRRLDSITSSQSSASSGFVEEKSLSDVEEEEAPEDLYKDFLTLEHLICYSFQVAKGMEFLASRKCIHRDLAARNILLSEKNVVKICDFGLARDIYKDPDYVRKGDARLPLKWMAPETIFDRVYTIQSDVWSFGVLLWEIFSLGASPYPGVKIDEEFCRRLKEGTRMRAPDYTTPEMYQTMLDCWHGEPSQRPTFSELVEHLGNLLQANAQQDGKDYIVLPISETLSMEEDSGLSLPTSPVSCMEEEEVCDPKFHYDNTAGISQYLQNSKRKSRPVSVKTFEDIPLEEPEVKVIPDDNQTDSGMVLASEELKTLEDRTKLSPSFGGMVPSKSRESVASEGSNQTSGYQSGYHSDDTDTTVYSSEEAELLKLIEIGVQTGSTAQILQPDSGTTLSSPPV

## O=[N+]([O-])c1ccc(CNc2cccc(-c3nc4ccccc4[nH]3)c2)cc1
[1]
  IC50: 6.7 nM
MCF7 [2]
  IC50: 3.37 µM
[3]
  IC50: 6.7 nM

## COc1ccccc1NC(=O)c1ccc(NC(=O)CSc2nc3ccccc3o2)cc1
MCF7 [4]
  IC50: 4 µM
HepG2 [5]
  IC50: 3.95 µM

## O=C(CSc1nc2ccccc2o1)Nc1ccc(C(=O)Nc2ccc([N+](=O)[O-])cc2)cc1
HCT-116 [6]
  IC50: 2.79 µM
MCF7 [4]
  IC50: 3.43 µM
HepG2 [5]
  IC50: 2.43 µM

## COc1cc(/C=C2/C=C(c3nc4ccccc4[nH]3)NC2=O)ccc1O
A549 [7]
  IC50: 9.6 µM
MCF7 [8]
  IC50: 7.3 µM
DU-145
  IC50: 8.7 µM

## COc1cc(/C=N/NC(=O)c2nnn(Cc3nc4ccccc4[nH]3)c2C)ccc1O
[9]
  IC50: 229 nM
HCT-116 [10]
  IC50: 3.34 µM
HepG2 [11]
  IC50: 10.9 µM
MCF7 [12]
  IC50: 7.11 µM

## O=C(Nc1ccc(OC(F)(F)F)cc1)Nc1ccc2oc(-c3ccccc3Cl)nc2c1
HeLa [13]
  IC50: 280 nM
[14]
  inhibition: 98.6%
NCI-H1975
  IC50: 1400 nM
A549 [15]
  IC50: 7.61 µM
[16]
  IC50 at 48 h: 8.46 µM

## O=[N+]([O-])c1ccc(NC(=S)Nc2cccc(-c3nc4ccccc4[nH]3)c2)cc1
[1]
  IC50: 6.7 nM
MCF7 [2]
  IC50: 5.84 µM
[3]
  IC50: 8.9 nM

## O=C(CCc1nnc2sc(COc3ccccc3)nn12)c1nc2cc([N+](=O)[O-])ccc2[nH]1
UO-31
  IC50: 32.9 µM

## O=C(CSc1nc2ccccc2o1)Nc1ccc(C(=O)NC2CCCCC2)cc1
HCT-116 [6]
  IC50: 7.8 µM
MCF7 [4]
  IC50: 7.2 µM

## Cc1ccc2[nH]c(-c3ccc(C(=O)N/N=C/c4ccc(Cl)cc4Cl)cc3)nc2c1
MCF7 [17]
  GI: 30.51 µM

## Cn1c(COC(=O)c2c[nH]c3ccccc23)nc2ccccc21
[18]
  IC50 at 72 h: 540 nM
HeLa [19]
  IC50: 270 nM
[20]
  IC50 at 72 h: 260 nM
HT-29
  IC50: 360 nM
[21]
  inhibition: 33.9%
[22]
  IC50 at 72 h: 210 nM

## O=C(CCSc1nc2ccccc2o1)Nc1ccc(S(=O)(=O)NC(=O)NC2CCCCC2)cc1
HCT-116 [23]
  IC50: 7.14 µM
HepG2 [24]
  IC50: 5.93 µM
[25]
  IC50: 80 nM
MCF7 [26]
  IC50: 8.93 µM

## Cc1ccc2oc(SCCC(=O)Nc3ccc(S(=O)(=O)NC(=O)Nc4ccccc4)cc3)nc2c1
HCT-116 [23]
  IC50: 9.1 µM
HepG2 [24]
  IC50: 6.58 µM
MCF7 [26]
  IC50: 10.1 µM

## COc1cc(/C=C2/C=C(c3nc4ccccc4[nH]3)NC2=O)cc(OC)c1OC
A549 [7]
  IC50: 8.3 µM
MCF7 [8]
  IC50: 7.2 µM
DU-145
  IC50: 7.7 µM

## COc1cc(/C=N/NC(=O)c2ccc(-c3nc4cc(C)ccc4[nH]3)cc2)cc(OC)c1OC
MCF7 [17]
  GI: 84.33 µM

## O=C(CCSc1nc2ccccc2o1)Nc1ccc(S(=O)(=O)NC(=O)Nc2ccccc2)cc1
HCT-116 [23]
  IC50: 9.52 µM
HepG2 [24]
  IC50: 8.75 µM
MCF7 [26]
  IC50: 9.95 µM

## Cc1ccc2oc(SCC(=O)Nc3ccc(C(=O)Nc4cccc(Cl)c4)cc3)nc2c1
MCF7 [4]
  IC50: 15.2 µM
HepG2 [5]
  IC50: 10.5 µM

## CCNC(=S)NS(=O)(=O)c1ccc(NC(=O)CCSc2nc3ccccc3o2)cc1
HCT-116 [23]
  IC50: 7.91 µM
HepG2 [24]
  IC50: 8.1 µM
MCF7 [26]
  IC50: 12.3 µM

## O=C(OCc1nc2ccccc2[nH]1)c1c[nH]c2ccccc12
[18]
  IC50 at 72 h: 370 nM
HeLa [19]
  IC50: 190 nM
[20]
  IC50 at 72 h: 560 nM
HT-29
  IC50: 190 nM
[21]
  inhibition: 34%
[22]
  IC50 at 72 h: 540 nM

## COc1ccc(-c2nn(-c3ccccc3)cc2/C=C2/S/C(=N\N=C(/C)c3nc4ccccc4[nH]3)N(c3ccc(Cl)cc3)C2=O)cc1
MCF7 [2]
  IC50: 5.84 µM
HepG2 [27]
  IC50: 11 µg/mL (≈ 17.1 µM)
